Measured values published in patent US11357742B2, “Methods for treating cancer” (X4 Pharmaceuticals, Inc., priority 2015, dated 2022).

Columns and labels:
[1] = system: renal cell carcinoma (RCC) xenografts; settings: cited from earlier work
[2] = system: 786-0 and A498 RCC xenografts; assay: Murine models with human RCC cell line xenografts (tumor size, IHC, IF, flow cytometry); type: in vivo, mice; settings: 786-0 and A498 xenografts
Protocol: With each of the human cell lines, 1×10^7 tumor cells were implanted subcutaneously in the flanks of 36 nude/beige mice and tumors allowed to grow to roughly 7 mm in diameter. […] Therefore, on day 7, the mice were sacrificed and the tumors were measured and immediately excised and divided into three parts. One part of each tumor was paraffin-embedded for dual color immunofluorescence. Another part was mechanically disaggregated and treated with collagenase/DNAse to generate a single cell suspension for flow cytometry. The third part was frozen for future pharmacokinetic analysis. Microscope slides were made from the paraffin-embedded tumor tissue, which were stained with antibodies against CD11b, Gr-1, and FAP. The number of infiltrating CD11b+/Gr-1+ MDSC and FAP+ fibroblasts present in the tumor tissue was then determined by immunofluorescence (IF) as previously described (1).
The disaggregated tumor specimens were analyzed for CD11b+/Gr-1+ MDSC and FAP+ fibroblasts by flow cytometry. The fraction of both populations expressing CXCR4 were also determined. […] One part was disaggregated into single cell suspensions and analyzed by flow cytometry as above for MDSC. […] Finally, a bone marrow (BM) sample was generated by extruding marrow from an excised femur with a syringe filled with saline and analyzed by flow cytometry for MDSC.

mir-30a and mir-30c = settings: 786-0 xenograft tumor, after 8 days of treatment
Text: Data is presented as mir-30a or mir-30c expression relative to the mean control value (left side) and relative HIF-2α RNA expression.

[3] = oral; see current product label; cited from earlier work
[4] = cited from earlier work
[5] = concurrent administration with sunitinib

Row | Structure (SMILES) | development of sunitinib resistance [1, 5] | influx of MDSC [1, 5] | HIF-2 expression ([1]; in vivo) | effects on tumor growth ([2]; nude/beige mice, day 7, axitinib 30 mg/kg daily by gavage) | MDSC infiltration of tumors ([2]; CD11b+/Gr-1+ cells) | mir-30a and mir-30c expression (mir-30a and mir-30c) | effect of food on absorption [3] | partition coefficient (n-octanol/water) [4]
1 | CC(C)(C)C[C@H]1N[C@@H](C(=O)NCC[C@H](O)CO)[C@H](c2ccc(F)c(Cl)c2)[C@@]12C(=O)Nc1cc(Cl)c(F)cc12 [MI-319] | prevented | prevented | suppresses |  |  |  |  | 
2 | CNC(=O)c1ccccc1Sc1ccc2c(/C=C/c3ccccn3)n[nH]c2c1 [axitinib, N-methyl-2-[3-((E)-2-pyridin-2-yl-vinyl)-1H-indazol-6-ylsulfanyl]-benzamide] |  |  |  | no | extensive MDSC infiltration | suppressed | not altered by food | 3.5
